One test concerns the target PqsA (Pseudomonas aeruginosa, UniProt Q9I4X3). The following applies: previous biochemical studies; read-out: Km as PqsA substrate; cited from earlier work.
The target in another test is P. aeruginosa PqsA (Pseudomonas aeruginosa, UniProt Q9I4X3). The experiment in a line: PqsA inhibition, spectrophotometric assay with recombinant PqsA (anthranilyl-CoA formation at 365 nm). In kind it is biochemical. The following applies: short time scale of the assay. As to the method: PqsA inhibitors were evaluated using a quantitative spectrophotometric assay with recombinant PqsA, detecting formation of anthranilyl-CoA at 365 nm. See, e.g., Coleman et al. (2008) J. Bacteriol. 190, 1247. […] See, e.g., Morrison et al. Biochim. Biophys. Acta, Enzymol. 185, 269-286; Williams et al. (1979) Methods Enzymol. 63, 437. […] See, e.g., Qiao et al. (2007) J. Am. Chem. Soc. 129, 6350.
Reactions were performed at 37° C. in a 0.5 mL volume in a Varian Cary 100 UV-visible spectrophotometer with Cary WinUV software. Reaction mixtures contained 100 mM HEPES, pH 8.0, 0.2 mM dithiothreitol, 2 mM MgCl2, ˜3.3 μg PqsA protein (˜60 nM final), and depending on which substrate varied, 1 mM ATP (disodium salt), 0.5 mM coenzyme A (tri-lithium salt), 0.5 mM sodium anthranilate, and inhibitor (usually as a DMSO stock solution). Reactions were blanked and preincubated with all components except anthranilate at 37° C. for 1 min, then initiated by addition of anthranilate. Formation of anthraniloyl-CoA was monitored ance at 365 nm (ε=5.5 mM−1 cm−1) for 1 min. Data were analyzed using GraphPad Prism 6 software.

The subject of test [1] is HHQ and PQS quinolone production in P. aeruginosa strain PA14. The experiment in a line: Inhibition of HHQ and PQS quinolone production in P. aeruginosa strain PA14 (LC-MS/MS). In kind it is cell-based, Pseudomonas aeruginosa. As to conditions: 1.5 mM, HHQ 8 h, PQS 20 h. On the procedure: The production of PQS and HHQ by strain PA14 was performed in triplicate in 14-mL round bottom falcon tubes containing 3-mL cultures in LB medium. Tubes were incubated at 37° C. in an orbital shaker at 225 rpm. Cultures were inoculated with 15-hour culture in LB in order to obtain a starting OD600=0.05, with or without inhibitors added. For PQS and HHQ analysis, a 20 μl aliquot was taken at time points as indicated. Each sample was diluted with 180 μL of methanol containing the internal standard (100 μM of d^4-PQS or d^4-HHQ) and 2% acetic acid. The solution was then vertexed and centrifuged at 13,000 g for 5 minutes, and the supernatant was transferred to a 96-well plates for LC-MS/MS analysis. Bacterial growth was measured by recording OD600 at 20 h to provide the data in FIG. 7A.
Liquid chromatography tandem mass spectrometry (LC-MS/MS) was carried out on an Agilent Technologies 6410 triple quad LC-MS/MS system with autosampler in electrospray ionization (ESI) mode, with an Agilent Zorbax Eclipse XDB-C18 reverse phase column (50×4.6 mm, 5 μm) using a flow rate of 0.5 mL/minute and an isocratic mobile phase of 60% CH3CN in 0.1% aqueous formic acid over 5 minutes. Positive electrospray in MRM mode was employed to quantify PQS and HHQ, using the ion transitions HHQ 244 to 159, d^4-HHQ 248 to 163, PQS 260 to 175, and d^4-PQS 264 to 179; shown in Table E3.
PqsA inhibitors 1-5 were evaluated for their ability to inhibit HHQ and PQS quinolone production in P. aeruginosa strain PA14 (FIG. 6). HHQ and PQS concentrations were determined by LC-MS/MS quantitation relative to deuterated internal standards. 6-Fluoroanthranilate (6FABA), a substrate analogue reported previously to inhibit quinolone production at millimolar concentrations, was used as a positive control. Compounds were initially tested at 1.5 mM concentration, and HHQ and PQS were quantified at 8 and 20 hours, respectively. These time points were selected based on an initial time course study of quinolone production in the absence of inhibitors, with HHQ or PQS production peaking at these respective time points. […] This could be due to differences in cell penetration, stability, and/or target specificity. Finally, because inhibitors of the quinolone quorum sensing pathway should not impact bacterial growth, we confirmed that none of the six inhibitors above inhibited growth over 20 h (FIG. 7A). Encouraged by the ability of anthranilyl-AMS (1) and anthranilyl-AMSN (2) to inhibit HHQ and PQS quinolone production, the activity of these two inhibitors and 6FABA were investigated in greater detail. In untreated controls, HHQ and PQS production peaked at 8 and 20 hours, respectively. Previously reported time course studies have similarly shown that HHQ levels peak at 6-8 hours while PQS levels continue to rise. See, e.g., Deziel et al. (2004) Proc. Natl. Acad. Sci. U.S.A 101, 1339; Kesarwani et al. (2011) PLoS Pathog. 7, e1002192. All three inhibitors were able to decrease quinolone production in a dose- and time-dependent manner (FIG. 2A). […] Such a perturbation might still be sufficient to impact P. aeruginosa virulence in vivo. […] See, e.g., Lesic et al. (2007) PLoS Pathog. 3, e126.

On to `Nc1ccccc1C(=O)O` [anthranilate], for which, on PqsA, the Km is 8 µM. In the case of `O=C(O)c1ccccc1` [benzoate], the Km on PqsA was 150 µM. Regarding `Nc1ncnc2c1ncn2[C@@H]1O[C@H](CNS(=O)(=O)NC(=O)c2ccccc2O)[C@@H](O)[C@H]1O` [salicyl-AMSN, Salicyl-AMSN, reference compound], the “PqsA inhibition, potency in words” value at P. aeruginosa PqsA was “potency similar to that of the cognate anthranilyl inhibitors”. The “inhibition of quinolone production, in words” value in test [1] was “less potent inhibitors of quinolone production”.

Broadly, the Km is the concentration of substrate that gives half-maximal velocity.

Values taken from US10874686B2, “Anthranilyl-adenosinemonosulfamate analogs and uses thereof” (Memorial Sloan-Kettering Cancer Center, priority 2015, dated 2020).
